The numbers were not newly measured in patent publication US20120064152A1, “Analgesic and Anti-Inflammatory Compositions Comprising Domperidone and Methods of Using Same” (THE BOOTS COMPANY, priority 1996, published 2012), which cites them from elsewhere.

Where two headings read alike, the source gives them in different places.

For the data set the following is noted: oral 100 mg sumatriptan.

With `CNS(=O)(=O)Cc1ccc2[nH]cc(CCN(C)C)c2c1` [sumatriptan], the “effectiveness compared with aspirin 900 mg plus 10 mg metoclopramide” value is “as effective as aspirin 900 mg plus 10 mg metoclopramide” (initial attacks) and “more effective” (subsequent attacks).
